Row | Structure (SMILES) | melting point [°C]
1 | Cc1cccc(-c2nc(-c3ccccc3)sc2-c2ccnc(C)c2)c1 [Example Compound 14-6, 4-(3-methylphenyl)-5-(2-methyl-4-pyridyl)-2-phenyl-1,3-thiazole] | 79 to 80
2 | Cc1cccc(-c2nc(Cc3ccccc3)sc2-c2ccnc(C)c2)c1 [Example Compound 14-7, 4-(3-methylphenyl)-5-(2-methyl-4-pyridyl)-2-(phenylmethyl)-1,3-thiazole] | 82 to 84
3 | Cc1cccc(-c2nc(CCc3ccccc3)sc2-c2ccnc(C)c2)c1 [Example Compound 14-8, 4-(3-methylphenyl)-5-(2-methyl-4-pyridyl)-2-(2-phenylethyl)-1,3-thiazole] | 64 to 65
4 | CCOC(=O)c1nc(-c2cccc(C)c2)c(-c2ccnc(C)c2)s1 [Example Compound 14-12, Ethyl [4-(3-methylphenyl)-5-(2-methyl-4-pyridyl)-1,3-thiazol-2-yl]carboxylate] | 97 to 98
5 | Cc1cccc(-c2nc(N3CCN(C)CC3)sc2-c2ccnc(C)c2)c1 [Example Compound 14-13, 4-(3-methylphenyl)-2-(4-methylpiperazin-1-yl)-5-(2-methyl-4-pyridyl)-1,3-thiazole] | 115 to 116
6 | Cc1cccc(-c2nc(N3CCN(C)CC3)sc2-c2ccnc(C)c2)c1 [Example Compound 14-14, 4-(3-methylphenyl)-2-(1-methylpiperazin-4-yl)-5-(2-methyl-4-pyridyl)-1,3-thiazole] | 127 to 130
7 | CSc1ccc(-c2nc(-c3cccc(C)c3)c(-c3ccnc(F)c3)s2)cc1 [Example Compound 15, 5-(2-fluoro-4-pyridyl)-4-(3-methylphenyl)-2-[4-(methylthio)phenyl]-1,3-thiazole] | 97 to 100
8 | CSc1ccc(-c2nc(-c3cccc(C)c3)c(-c3ccnc(C)c3)s2)cc1 [Example Compound 16-1, 4-(3-methylphenyl)-5-(2-methyl-4-pyridyl)-2-[4-(methylthio)phenyl]-1,3-thiazole] | 119 to 122
9 | CSc1ccc(-c2nc(-c3cc(C)cc(C)c3)c(-c3ccnc(C)c3)s2)cc1 [Example Compound 16-2, 4-(3,5-dimethylphenyl)-5-(2-methyl-4-pyridyl)-2-[4-(methylthio)phenyl]-1,3-thiazole] | 123 to 125
10 | CSc1ccc(-c2nc(-c3cccc(C)c3)c(-c3cc(C)nc(C)c3)s2)cc1 [Example Compound 16-3, 5-(2,6-dimethyl-4-pyridyl)-4-(3-methylphenyl)-2-[4-(methylthio)phenyl]-1,3-thiazole] | 112 to 114
11 | CSc1ccc(-c2nc(-c3cc(C)cc(C)c3)c(-c3cc(C)nc(C)c3)s2)cc1 [Example Compound 16-4, 4-(3,5-dimethylphenyl)-5-(2,6-dimethyl-4-pyridyl)-2-[4-(methylthio)phenyl]-1,3-thiazole] | 134 to 136
12 | CSc1ccc(-c2nc(-c3ccc(F)cc3)c(-c3ccnc(C)c3)s2)cc1 [Example Compound 16-5, 4-(4-fluorophenyl)-5-(2-methyl-4-pyridyl)-2-[4-(methylthio)phenyl]-1,3-thiazole] | 99 to 100
13 | Cc1cccc(-c2nc(-c3ccc(F)cc3)sc2-c2ccnc(N)c2)c1 [Example Compound 18-1, 4-[2-(4-fluorophenyl)-4-(3-methylphenyl)-1,3-thiazol-5-yl]-2-pyridylamine] | 160 to 162
14 | Cc1cccc(-c2nc(CC(F)(F)F)sc2-c2ccnc(N)c2)c1 [Example Compound 18-3, 4-[4-(3-methylphenyl)-2-(2,2,2-trifluoroethyl)-1,3-thiazol-5-yl]-2-pyridylamine] | 131 to 132
15 | CCCc1nc(-c2cccc(C)c2)c(-c2ccnc(N)c2)s1 [Example Compound 18-4, 4-[4-(3-methylphenyl)-2-propyl-1,3-thiazol-5-yl]-2-pyridylamine] | 113 to 115
16 | CCOC(=O)Cc1nc(-c2cccc(C)c2)c(-c2ccnc(N)c2)s1 [Example Compound 18-5, Ethyl [5-(2-amino-4-pyridyl)-4-(3-methylphenyl)-1,3-thiazol-2-yl]acetate] | 128 to 129
17 | CCOC(=O)c1nc(-c2cccc(C)c2)c(-c2ccnc(N)c2)s1 [Example Compound 18-6, Ethyl [5-(2-amino-4-pyridyl)-4-(3-methylphenyl)-1,3-thiazol-2-yl]carboxylate] | 147 to 148
18 | CCc1nc(-c2cccc(Cl)c2)c(-c2ccnc(N)c2)s1 [Example Compound 20-1, 4-[2-ethyl-4-(3-chlorophenyl)-1,3-thiazol-5-yl]-2-pyridylamine] | 132 to 133
19 | CCc1nc(-c2ccccc2)c(-c2ccnc(N)c2)s1 [Example Compound 20-2, 4-(2-ethyl-4-phenyl-1,3-thiazol-5-yl)-2-pyridylamine] | 158 to 159
20 | CCc1nc(-c2ccc(F)cc2)c(-c2ccnc(N)c2)s1 [Example Compound 20-3, 4-[2-ethyl-4-(4-fluorophenyl)-1,3-thiazol-5-yl]-2-pyridylamine] | 140 to 141
21 | CCc1nc(-c2cccc(C(F)(F)F)c2)c(-c2ccnc(N)c2)s1 [Example Compound 20-4, 4-[2-ethyl-4-[3-(trifluoromethyl)phenyl]-1,3-thiazol-5-yl]-2-pyridylamine] | 117 to 118

Row | Structure (SMILES) | melting point [°C]
22 | CCc1nc(-c2ccc(SC)cc2)c(-c2ccnc(N)c2)s1 [Example Compound 20-5, 4-[2-ethyl-4-[4-(methylthio)phenyl]-1,3-thiazol-5-yl]-2-pyridylamine] | 119 to 120
23 | CCc1nc(-c2cccc(F)c2)c(-c2ccnc(N)c2)s1 [Example Compound 20-6, 4-[2-ethyl-4-(3-fluorophenyl)-1,3-thiazol-5-yl]-2-pyridylamine] | 153 to 154
24 | CCc1nc(-c2ccc(Cl)cc2)c(-c2ccnc(N)c2)s1 [Example Compound 20-7, 4-[4-(4-chlorophenyl)-2-ethyl-1,3-thiazol-5-yl]-2-pyridylamine] | 136 to 137
25 | CCc1cccc(-c2nc(CC)sc2-c2ccnc(N)c2)c1 [Example Compound 20-8, 4-[2-ethyl-4-(3-ethylphenyl)-1,3-thiazol-5-yl]2-pyridylamine] | 128 to 129
26 | CCc1nc(-c2ccc(F)c(C)c2)c(-c2ccnc(N)c2)s1 [Example Compound 20-9, 4-[2-ethyl-4-(4-fluoro-3-methylphenyl)-1,3-thiazol-5-yl]-2-pyridylamine] | 134 to 135
27 | CCc1nc(-c2cccc(C(C)C)c2)c(-c2ccnc(N)c2)s1 [Example Compound 20-10, 4-[2-ethyl-4-[3-(1-methylethyl)phenyl]-1,3-thiazol-5-yl]-2-pyridylamine] | 80 to 81
28 | CCCc1cccc(-c2nc(CC)sc2-c2ccnc(N)c2)c1 [Example Compound 20-11, 4-[2-ethyl-4-(3-propylphenyl)-1,3-thiazol-5-yl]-2-pyridylamine] | 72 to 74
29 | CCc1nc(-c2cccs2)c(-c2ccnc(N)c2)s1 [Example Compound 20-12, 4-[2-ethyl-4-(2-thienyl)-1,3-thiazol-5-yl]-2-pyridylamine] | 159 to 160
30 | CCCc1nc(-c2cccc(Cl)c2)c(-c2ccnc(N)c2)s1 [Example Compound 21-1, 4-[4-(3-chlorophenyl)-2-propyl-1,3-thiazol-5-yl]-2-pyridylamine] | 99 to 100
31 | CCOC(=O)Cc1nc(-c2cccc(Cl)c2)c(-c2ccnc(N)c2)s1 [Example Compound 21-2, Ethyl [5-(2-amino-4-pyridyl)-4-(3-chlorophenyl)-1,3-thiazol-2-yl]acetate] | 154 to 155
32 | Cc1cccc(-c2nc(C)sc2-c2ccnc(N)c2)c1 [Example Compound 23-1, 4-[2-methyl-4-(3-methylphenyl)-1,3-thiazol-5-yl]-2-pyridylamine] | 152 to 153
33 | CSc1ccc(-c2nc(-c3cccc(C)c3)c(-c3ccnc(N)c3)s2)cc1 [Example Compound 23-2, 4-[4-(3-methylphenyl)-2-[4-(methylthio)phenyl]-1,3-thiazol-5-yl]-2-pyridylamine] | 181 to 183
34 | COc1ccc(-c2nc(C)sc2-c2ccnc(N)c2)cc1 [Example Compound 23-3, 4-[4-(4-methoxyphenyl)-2-methyl-1,3-thiazol-5-yl]-2-pyridylamine] | 140 to 141
35 | Cc1cccc(-c2nc(C(=O)O)sc2-c2ccnc(N)c2)c1 [Example Compound 25-1, 5-(2-amino-4-pyridyl)-4-(3-methylphenyl)-1,3-thiazole-2-carboxylic acid] | 156 to 157
36 | Cc1cccc(-c2nc(C(=O)O)sc2-c2ccnc(C)c2)c1 [Example Compound 25-2, 5-(2-methyl-4-pyridyl)-4-(3-methylphenyl)-1,3-thiazole-2-carboxylic acid] | 135 to 136
37 | Cc1cccc(-c2ncsc2-c2ccnc(N)c2)c1 [Example Compound 27-1, 4-[4-(3-methylphenyl)-1,3-thiazol-5-yl]-2-pyridylamine] | 91 to 92
38 | Cc1nc(-c2cccc(Cl)c2)c(-c2ccnc(N)c2)s1 [Example Compound 27-2, 4-[4-(3-chlorophenyl)-2-methyl-1,3-thiazol-5-yl]-2-pyridylamine] | 142 to 143
39 | CCc1nc(-c2cccc(C)c2)c(-c2ccnc(NC(=O)C3CCCC3)c2)s1 [Example Compound 29-1, N-[4-[2-ethyl-4-(3-methylphenyl)-1,3-thiazol-5-yl]-2-pyridyl]cyclopentanecarboxamide] | 123 to 125
40 | CC(=O)Nc1cc(-c2sc(C)nc2-c2cccc(Cl)c2)ccn1 [Example Compound 30-1, N-[4-[4-(3-chlorophenyl)-2-methyl-1,3-thiazol-5-yl]-2-pyridyl]acetamide] | 112 to 115
41 | CCc1nc(-c2cccc(Cl)c2)c(-c2ccnc(NC(C)=O)c2)s1 [Example Compound 30-2, N-[4-[4-(3-chlorophenyl)-2-ethyl-1,3-thiazol-5-yl]-2-pyridyl]acetamide] | 149 to 150
42 | CCCc1nc(-c2cccc(Cl)c2)c(-c2ccnc(NC(C)=O)c2)s1 [Example Compound 30-3, N-[4-[4-(3-chlorophenyl)-2-propyl-1,3-thiazol-5-yl]-2-pyridyl]acetamide] | 144 to 145

— patent US7495018B2, “Substituted 1,3-thiazole compounds, their production and use” (Takeda Pharmaceutical Company Limited, priority 2000, dated 2009)
